Data taken from patent publication US20040096423A1, “Use of a triple combination comprising a 5ht3 antagonist, a 5ht4agonist and a laxative for promoting intestinal lavage” (priority 2000, published 2004).
pEC50: −log10 of the molar value.

Legend:
[1] = system: dogs; experiment: Measurement of onset of liquid stool in dogs challenged with KleanPrep; type: in vivo, dog; settings: for ED50: Canis lupus familiaris, read-out: ED50 for liquid stools within 6 hours after administration of KleanPrep
Protocol: Measurement of Onset of Liquid Stool
The dogs were orally or subcutaneously pretreated with test compounds or distilled water (0.5 ml/kg) and 1 hour later challenged by gavage with KleanPrep™ (standard volume: 2×200 ml at a 15 minutes interval). The time interval at which the first liquid stool occurred was noted (in minutes after the first administration of KleanPrep™) up to 6 hours after challenge.
The KleanPrep™ preparation consisted of polyethyleneglycol 3350 (59.000 g/l), sodium sulphate (5.685 g/l), sodium hydrogencarbonate (1.685 g/l), sodium chloride (1.465 g/l), potassium chloride (0.7425 g/l), aspartate (0.0494 g/l) and vanilla (0.3291 g/l).
In a pilot study on five dogs, large volumes of KleanPrep™ (1400, 1400, 1800, 2800, 2800 ml) and relatively long time intervals (95, 101, 124, 211 and 305 minutes after KleanPrep™) were required to obtain liquid stools within an observation period of 6 hours. In the present experiments, a standard volume of 400 ml KleanPrep™ solution (2×200 ml at a 15 minutes interval) was used. Under these conditions, liquid stools were not observed up to 6 hours after KleanPrep™, neither in 40 control dogs pretreated with a single dose of distilled water (0.5 ml/kg, p.o., −1 hour), nor in 35 control dogs pretreated with two doses of distilled water (0.5 ml/kg, p.o., −1 hour) immediately after each other, nor in 10 dogs pretreated with a dose of distilled water (0.5 ml/kg, p.o., −1 hour) and a dose of saline (0.5 ml/kg, s.c., −1 hour), nor in 5 dogs treated with two doses of distilled water (0.5 ml/kg, p.o., −1 hour) and a dose of saline (0.5 ml/kg, s.c., −1 hour).

[2] = biological target: T1, 5HT4 receptor (Cavia porcellus, UniProt O70528); experiment: Electrically stimulated guinea-pig ileum longitudinal muscle-myenteric plexus strips (titled in vitro binding affinity for the 5HT4 receptor); type: cell-based; settings: submaximal electrical stimulation
T1 construct: The longitudinal muscle layer with myenteric plexus was removed; from tissue; host or cells: guinea-pig ileum longitudinal muscle with myenteric plexus
T1 sequence (O70528 whole entry): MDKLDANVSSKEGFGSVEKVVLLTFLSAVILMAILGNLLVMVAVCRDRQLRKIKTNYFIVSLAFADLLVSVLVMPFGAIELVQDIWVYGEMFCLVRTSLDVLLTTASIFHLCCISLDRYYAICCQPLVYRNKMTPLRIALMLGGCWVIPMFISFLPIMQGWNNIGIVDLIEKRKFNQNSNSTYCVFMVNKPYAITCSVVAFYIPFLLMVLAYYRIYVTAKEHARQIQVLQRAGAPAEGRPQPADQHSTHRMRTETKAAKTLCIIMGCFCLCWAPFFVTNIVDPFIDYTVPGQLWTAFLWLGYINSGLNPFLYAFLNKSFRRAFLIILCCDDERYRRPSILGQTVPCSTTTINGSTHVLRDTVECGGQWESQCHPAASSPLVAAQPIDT
From the text: Dunkin-Hartley guinea-pigs of either sex (weighing between 600-900 g) were killed by decapitation. The ileum was removed and cleansed with warmed and oxygenated Krebs-Henseleit solution. Parts of the ileum (15 cm) were slipped over a glass pipette. The longitudinal muscle layer with myenteric plexus was removed by means of a cotton thread moistened with Krebs solution. Strips with a length of 8 cm were folded and these strips (4 cm) were mounted between two platinum electrodes (8 cm length, 0.5 cm apart). […] The preparations were excited with single rectangular stimuli [1 ms; 0.1 Hz; submaximal response (current leading to 80% of maximal response), from a programmable stimulator (Janssen Scientific Instruments Division)]. Contractions were measured isometrically (Statham UC2, Janssen Scientific Instruments amplifier, Kipp BD-9 pen-recorder). During the stabilization period of 30 minutes, the strips were repeatedly stretched, in order to obtain a steady state tension of 1.5 g. Before starting the electrical stimulation, a cumulative concentration response curve of acetylcholine (3.10^−9, 10^−8, 3.10^−8 and 10^−7 M) was given. The bath fluid was replaced with fresh Krebs solution and the strips were allowed to stabilize for another 30 minutes. Subsequently, the strips were stimulated electrically (power stimulator) at a frequency of 0.1 Hz for 1 ms. […]

[3] = of 35 dogs, Compound A 0.01 mg/kg p.o. + distilled water, 1 h before KleanPrep
[4] = dogs, 5HT4 agonist alone 1 h before KleanPrep 2×200 ml
[5] = dogs pretreated with Compound A 0.01 mg/kg, 5HT4 agonist co-administered, + KleanPrep
[6] = dogs pretreated with Compound A 0.01 mg/kg, 5HT4 agonist co-administered, + KleanPrep, shortest median reached (down to)

SMILES	median onset of the first liquid stool after administration of KleanPrep ([1]; dogs, Compound A 0.01 mg/kg p.o. + KleanPrep, no 5HT4 agonist (control)) [min]	number of dogs displaying liquid stools within 1 hour [1, 3]	number of dogs displaying liquid stools within 6 hours [1, 3]	ED50 [1, 4] [mg/kg]	ED50 for liquid stools within 1 hour [1, 5] [mg/kg]	median onset of the first liquid stool after administration of KleanPrep [1, 6] [min]	dose up to which liquid stools within 1 hour were not obtained [1, 4] [mg/kg]	pEC50 [2]	dose up to which liquid stools were not induced over the 6 hour observation period [1, 4] [mg/kg]
CO[C@@H]1CN(CCCNc2nccc(=O)[nH]2)CC[C@@H]1NC(=O)c1cc(Cl)c(N)c2c1OC(C)(C)C2 (relative stereo) [Compound A, (−)-cis-4-amino-5-chloro-2,3-dihydro-N-[1-[3-[(3,4-dihydro-4-oxo-2-pyrimidinyl)-amino]propyl]-3-methoxy-4-piperidinyl]-2,2-dimethyl-7-benzofurancarboxamide]	125	two	Thirty-three						
COc1cc(N)c(Cl)cc1C(=O)NC1CCN(CCCOc2ccc(F)cc2)CC1OC (centres unmarked) [cisapride]				0.89	0.056	24			
COCCCN1CCC(NC(=O)c2cc(Cl)c(N)c3c2OCC3)CC1 [prucalopride]				2.3	0.22	32	> 5		
COCCCN1CC[C@@H](CNC(=O)c2cc(Cl)c(N)c3c2OC(C)(C)C3)[C@H](O)C1 [Compound B, (3S-trans)-4-amino-5-chloro-2,3-dihydro-N-[[3-hydroxy-1-(3-methoxypropyl)-4-piperidinyl]methyl]-2,2-dimethyl-7-benzofuran-carboxamide]					0.0014	29		8.80	> 2.5
